Reference: paper PMC11403733, “Asymmetric Dirhodium-Catalyzed Modification of Immunomodulatory Imide Drugs and Their Biological Assessment” (ACS Medicinal Chemistry Letters, 2024)
Values joined by “and” are separate entries in the source; they are usually repeats but may differ in a detail not shown here. Identical values can stand only once.

Key:
[1] = biological target: T1, GSPT1 (Homo sapiens, UniProt P15170+Q96SW2); assay: ePL degradation assay, DF15/GSPT1 ePL OE cells; assay type: cell-based; settings: N ≥ 3; for EC50: degradation, 20 hr incubation, top conc 10 uM; for GSPT1 Ymin: depth of degradation (100% = no reduction, 0% = complete degradation), 20 hr
T1 construct: expressed in transfected cells; host or cells: DF15
Procedure: (§1) Section 6: Assay Protocols
(§2) Fluorescence Resonance Energy Transfer-Based NSD@ PWWP Cereblon Binding Assay. […]
(§3) Compounds for testing were spotted into a 1536 well plate (Greiner Cat#782075). CRBN and Tracer solution were incubated in compound wells for 20 minutes. Detection mix containing Anti6xHis Tb Crytate (CisBio Cat#61HI2TLF) was then added to assay wells for a final 0.5x assay concentration of detection antibody (stock is provided at 400x). Plates were incubated for 30 minutes before being read on Pherastar FSX plate reader using TR-FRET module (Excitation 340nm, Emssion 615/665nm). ePL and HiBiT degradation assays
(§4) DF15 cells overexpressing ePL tagged GSPT1 (DF15/GSPT1 ePL OE) was used to monitor the degradation of GSPT1 induced by experimental compounds. MDS-L cells overexpressing ePL tagged CK1α and GSPT1G575N (MDS-L/CK1α ePL OE_ GSPT1G575N OE) was used to monitor the degradation of CK1α induced by experimental compounds. NCCIT cells with HiBiT tag knocked in at the c-terminus of SALL4 (NCCIT/SALL4-HiBiT KI) was used to monitor the degradation of SALL4 induced by experimental compounds. DF15 cells with HiBiT tag knocked in at the n-terminus of IKZF3 (DF15/HiBiT-IKZF3 KI) was used to monitor the degradation of AIOLOS (IKZF3) induced by experimental compounds. […]
(§5) The cell culture medium recipes, seeding densities and compound incubation time with cells are […]
(§6) Ta r g e t Cell line Cell culture medium Seeding Compound
(§7) (HI) FBS, 1mM sodium pyruvate, 25mM Hepes, 0.1% pluronic acid,
(§8) GSPT1G575N OE ng/mL of human recombinant IL3 […]
(§9) sodium pyruvate, 25mM Hepes, 0.1% pluronic acid, 1X NEAA
(§10) For all degradation assays, compounds were pre-spotted in a 153 6 well plate (Corning 3727) starting at 10uM with 3-fold serial dilution down 11 points in replicates using an Echo 650 series acoustic liquid handler. 5uL/well cells were seeded in the assay ready plate at the density and in […]
(§11) The final DMSO concentration in the cell culture was 0.25%. The plates were equilibrated at room temperature for 30 minutes before putting into a 37 °C CO2 incubator. After appropriate incubation period, plates were retrieved from the incubator and set at room temperature to equilibrate for 30 minutes, before adding ePL or HiBiT detection reagent. For ePL detection, the pre-prepared mixture of EA reagent, lysis buffer, and substrate reagent at ratio 1:1:4 from the DiscoverX InCELL Detection Kit (Eurofins 96-0079L) according to the manufacturer ’s recommendation was added 3ul/well into the plate. Plates were incubated in the dark for 1hr at room temperature before reading using a BMG PheraStar luminescence reader. For HiBiT detection, Nano-Glo HiBiT Lytic Reagent (Promega, N3050) prepared according to the manufacturer ’s recommendation was added 3 uL/well into the plate. Plates were incubated 30 minutes at room temperature in the dark before reading using a BMG PheraStar […]
(§12) To determine EC50 values for degradation, a four parameter logistic model (Sigmoidal Dose-Response Model) (FIT= (A+((B-A)/1+((C/x)^D)))) C is the inflection point (EC50), D is […] , A and B are the low and high limits of the fit respectively) was used to determine the compound’s EC50 value, which is the half maximum effective concentration. In the degradation assays, the Yconst of each compound was calculated by normalizing the lowest point of the fitted curve to the media only control, which is 0%, and the cells treated with DMSO control, which is 100%. All degradation curves were processed and evaluated using Dotmatics.
(§13) Section 7: Biological Data Tables

[2] = biological target: T2, CRBN (Homo sapiens, UniProt Q96SW2); assay: Fluorescence Resonance Energy Transfer-Based Cereblon Binding Assay (CRBN HTRF); settings: 0.5 nM 6×His-CRBN-DDB1, 20 nM tracer CC0782985, TR-FRET
T2 construct: (CRBN a.a. 1−442, DDB1 a.a); made in house
Procedure: as §1, §2, §3, §4

[3] = biological target: T3, SALL4 (Homo sapiens, UniProt Q96SW2+Q9UJQ4); assay: HiBiT degradation assay, NCCIT/SALL4-HiBiT KI cells; assay type: cell-based; settings: N ≥ 3; for EC50: degradation, 2 hr incubation, top conc 10 uM; for SALL4 Ymin: depth of degradation (100% = no reduction, 0% = complete degradation), 2 hr
T3 construct: endogenous in cells; host or cells: NCCIT (HiBiT knock-in)
Procedure: as §1, §2, §3, §4, §5, §6, §7, §8, §9, §10, §11, §12, §13

[4] = biological target: T4, CK1α (Homo sapiens, UniProt P48729+Q96SW2); assay: ePL degradation assay, MDS-L/CK1α ePL OE_GSPT1G575N OE cells; assay type: cell-based; settings: for EC50: degradation, 4 hr incubation, top conc 10 uM, N ≥ 3, read-out: CK1a EC50; for CK1a Ymin: depth of degradation (100% = no reduction, 0% = complete degradation), 4 hr, N ≥ 3
T4 construct: expressed in transfected cells; host or cells: MDS-L
Procedure: as §1, §2, §3, §4, §5, §6, §7, §8, §9, §10, §11, §12, §13

[5] = biological target: T5, IKZF3 (Aiolos) (Homo sapiens, UniProt Q96SW2+Q9UKT9); assay: HiBiT degradation assay, DF15/HiBiT-IKZF3 KI cells; assay type: cell-based; settings: N ≥ 3; for EC50: degradation, 4 hr incubation, top conc 10 uM; for IKZF3 Ymin: depth of degradation (100% = no reduction of protein level, 0% = complete degradation), 4 hr
T5 construct: endogenous in cells; host or cells: DF15 (HiBiT knock-in)
Procedure: as §1, §2, §3, §4, §5, §6, §7, §8, §9, §10, §11, §12, §13

T1 sequence (P15170 1-637 isoform P15170-3): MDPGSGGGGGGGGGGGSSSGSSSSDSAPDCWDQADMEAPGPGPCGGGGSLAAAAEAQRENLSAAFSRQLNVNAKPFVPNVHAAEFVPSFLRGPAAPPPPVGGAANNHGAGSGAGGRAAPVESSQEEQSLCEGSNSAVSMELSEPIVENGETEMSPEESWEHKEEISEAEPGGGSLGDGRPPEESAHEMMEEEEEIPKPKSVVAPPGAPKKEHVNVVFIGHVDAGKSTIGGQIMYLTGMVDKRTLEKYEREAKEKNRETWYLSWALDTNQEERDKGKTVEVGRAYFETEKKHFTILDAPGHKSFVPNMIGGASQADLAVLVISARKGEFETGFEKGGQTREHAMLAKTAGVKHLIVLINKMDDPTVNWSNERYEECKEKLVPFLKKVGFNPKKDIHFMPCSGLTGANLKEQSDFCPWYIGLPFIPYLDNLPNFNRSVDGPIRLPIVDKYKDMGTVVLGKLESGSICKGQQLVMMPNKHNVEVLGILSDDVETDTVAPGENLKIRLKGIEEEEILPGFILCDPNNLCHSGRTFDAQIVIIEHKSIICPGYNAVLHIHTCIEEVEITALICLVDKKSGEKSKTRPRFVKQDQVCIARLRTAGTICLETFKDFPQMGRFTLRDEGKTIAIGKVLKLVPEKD
T1 sequence (Q96SW2 whole entry): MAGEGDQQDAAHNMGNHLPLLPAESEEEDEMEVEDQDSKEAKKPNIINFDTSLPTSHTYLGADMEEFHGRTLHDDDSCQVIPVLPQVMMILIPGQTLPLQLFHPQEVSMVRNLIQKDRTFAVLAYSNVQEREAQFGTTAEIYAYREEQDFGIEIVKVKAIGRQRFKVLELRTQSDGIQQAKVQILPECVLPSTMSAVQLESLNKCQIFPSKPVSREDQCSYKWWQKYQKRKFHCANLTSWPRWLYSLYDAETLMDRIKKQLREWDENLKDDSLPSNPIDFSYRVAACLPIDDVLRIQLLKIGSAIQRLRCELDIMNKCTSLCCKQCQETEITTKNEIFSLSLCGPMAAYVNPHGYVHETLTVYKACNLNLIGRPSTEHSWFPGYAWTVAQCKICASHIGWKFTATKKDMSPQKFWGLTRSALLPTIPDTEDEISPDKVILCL
T1 sequence (Q16531 whole entry partner): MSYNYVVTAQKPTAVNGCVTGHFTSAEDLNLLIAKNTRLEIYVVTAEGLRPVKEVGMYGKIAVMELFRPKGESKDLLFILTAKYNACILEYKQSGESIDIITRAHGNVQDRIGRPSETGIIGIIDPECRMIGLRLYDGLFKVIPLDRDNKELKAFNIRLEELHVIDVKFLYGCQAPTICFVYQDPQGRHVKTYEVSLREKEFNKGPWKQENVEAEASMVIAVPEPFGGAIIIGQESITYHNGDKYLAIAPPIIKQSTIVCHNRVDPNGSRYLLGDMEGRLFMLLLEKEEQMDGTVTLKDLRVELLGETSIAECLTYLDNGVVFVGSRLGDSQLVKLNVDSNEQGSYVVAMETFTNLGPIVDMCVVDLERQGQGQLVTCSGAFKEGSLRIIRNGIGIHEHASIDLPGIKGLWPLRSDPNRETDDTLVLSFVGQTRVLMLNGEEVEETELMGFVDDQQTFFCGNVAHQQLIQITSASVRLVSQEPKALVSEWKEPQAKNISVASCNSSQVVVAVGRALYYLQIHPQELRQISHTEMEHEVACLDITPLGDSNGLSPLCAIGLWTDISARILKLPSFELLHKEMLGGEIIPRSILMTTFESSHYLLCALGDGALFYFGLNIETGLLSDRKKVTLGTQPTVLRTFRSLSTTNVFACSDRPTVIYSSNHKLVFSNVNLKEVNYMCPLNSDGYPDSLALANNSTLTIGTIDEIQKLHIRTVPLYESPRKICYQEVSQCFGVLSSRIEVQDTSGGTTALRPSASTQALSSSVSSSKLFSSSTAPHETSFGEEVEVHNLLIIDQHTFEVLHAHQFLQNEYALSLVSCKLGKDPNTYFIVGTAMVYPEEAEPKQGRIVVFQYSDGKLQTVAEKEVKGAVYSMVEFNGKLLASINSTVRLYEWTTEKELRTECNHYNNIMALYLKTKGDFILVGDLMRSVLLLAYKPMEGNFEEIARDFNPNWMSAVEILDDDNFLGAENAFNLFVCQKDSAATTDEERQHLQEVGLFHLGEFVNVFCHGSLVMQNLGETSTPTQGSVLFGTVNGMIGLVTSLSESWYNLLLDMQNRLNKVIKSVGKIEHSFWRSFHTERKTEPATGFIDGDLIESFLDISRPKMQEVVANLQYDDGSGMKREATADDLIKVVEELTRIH
T5 sequence (Q9UKT9 whole entry): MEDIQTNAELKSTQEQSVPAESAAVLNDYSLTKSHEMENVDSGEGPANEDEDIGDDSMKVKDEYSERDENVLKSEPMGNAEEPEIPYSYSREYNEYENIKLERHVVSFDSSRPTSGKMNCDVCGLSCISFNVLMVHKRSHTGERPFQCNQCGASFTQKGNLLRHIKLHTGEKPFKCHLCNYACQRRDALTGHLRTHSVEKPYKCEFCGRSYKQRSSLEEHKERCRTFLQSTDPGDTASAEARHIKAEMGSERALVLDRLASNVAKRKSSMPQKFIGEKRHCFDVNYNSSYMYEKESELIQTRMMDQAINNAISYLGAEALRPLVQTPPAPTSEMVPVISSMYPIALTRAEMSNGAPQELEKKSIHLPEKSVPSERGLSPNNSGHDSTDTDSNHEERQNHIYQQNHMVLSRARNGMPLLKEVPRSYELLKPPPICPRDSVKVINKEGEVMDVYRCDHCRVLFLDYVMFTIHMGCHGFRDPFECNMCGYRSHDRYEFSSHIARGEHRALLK
T5 sequence (Q96SW2 whole entry): as the sequence (Q96SW2 whole entry) above
T5 sequence (Q16531 whole entry partner): as the sequence (Q16531 whole entry partner) above
T2 sequence (Q96SW2 whole entry): as the sequence (Q96SW2 whole entry) above
T2 sequence (Q16531 whole entry partner): as the sequence (Q16531 whole entry partner) above
T3 sequence (Q9UJQ4 whole entry): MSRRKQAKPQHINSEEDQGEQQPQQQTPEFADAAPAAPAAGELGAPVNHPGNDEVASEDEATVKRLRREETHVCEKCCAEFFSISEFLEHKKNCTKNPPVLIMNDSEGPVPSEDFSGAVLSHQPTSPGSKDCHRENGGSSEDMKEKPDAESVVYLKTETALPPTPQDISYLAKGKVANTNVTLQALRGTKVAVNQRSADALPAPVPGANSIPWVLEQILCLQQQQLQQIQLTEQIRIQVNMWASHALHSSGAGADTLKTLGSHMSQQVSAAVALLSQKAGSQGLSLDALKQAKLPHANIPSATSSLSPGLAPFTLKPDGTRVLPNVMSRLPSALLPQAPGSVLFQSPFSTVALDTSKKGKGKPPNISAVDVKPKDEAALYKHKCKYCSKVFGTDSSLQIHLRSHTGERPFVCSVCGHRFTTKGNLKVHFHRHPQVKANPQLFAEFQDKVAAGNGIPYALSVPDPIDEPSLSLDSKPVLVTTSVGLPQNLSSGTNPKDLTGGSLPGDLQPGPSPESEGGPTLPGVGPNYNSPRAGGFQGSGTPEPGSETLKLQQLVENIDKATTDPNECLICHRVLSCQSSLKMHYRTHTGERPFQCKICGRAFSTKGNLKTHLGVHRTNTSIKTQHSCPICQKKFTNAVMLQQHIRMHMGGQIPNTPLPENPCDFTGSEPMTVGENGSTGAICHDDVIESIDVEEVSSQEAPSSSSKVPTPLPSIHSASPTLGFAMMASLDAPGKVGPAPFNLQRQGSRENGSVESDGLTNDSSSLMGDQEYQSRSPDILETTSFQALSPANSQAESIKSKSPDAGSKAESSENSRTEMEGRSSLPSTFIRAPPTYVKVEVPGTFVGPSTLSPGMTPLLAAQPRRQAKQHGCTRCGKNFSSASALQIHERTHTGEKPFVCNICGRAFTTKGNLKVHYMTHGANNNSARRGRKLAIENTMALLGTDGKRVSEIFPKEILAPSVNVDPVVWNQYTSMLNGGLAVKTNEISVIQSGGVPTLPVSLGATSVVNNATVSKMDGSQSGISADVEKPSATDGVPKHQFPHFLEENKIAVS
T3 sequence (Q96SW2 whole entry): as the sequence (Q96SW2 whole entry) above
T3 sequence (Q16531 whole entry partner): as the sequence (Q16531 whole entry partner) above
T4 sequence (P48729 whole entry): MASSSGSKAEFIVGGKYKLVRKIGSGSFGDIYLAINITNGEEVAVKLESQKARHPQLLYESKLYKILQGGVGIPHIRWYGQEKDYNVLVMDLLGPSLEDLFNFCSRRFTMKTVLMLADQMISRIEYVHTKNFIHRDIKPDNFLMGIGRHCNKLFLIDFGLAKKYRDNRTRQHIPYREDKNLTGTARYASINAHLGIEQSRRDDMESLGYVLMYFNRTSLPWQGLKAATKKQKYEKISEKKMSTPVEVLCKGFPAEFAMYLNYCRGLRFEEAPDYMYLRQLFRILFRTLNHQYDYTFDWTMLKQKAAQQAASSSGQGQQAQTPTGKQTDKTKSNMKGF
T4 sequence (Q96SW2 whole entry): as the sequence (Q96SW2 whole entry) above
T4 sequence (Q16531 whole entry partner): as the sequence (Q16531 whole entry partner) above

Row | Structure (SMILES) | EC50 [1] [nM] | GSPT1 Ymin [1] [%] | IC50 [2] [nM] | EC50 [3] [nM] | SALL4 Ymin [3] [%] | EC50 [4] [nM] | CK1a Ymin [4] [%] | EC50 [5] [nM] | IKZF3 Ymin [5]
1 | O=C1CCC(N2Cc3cccc([C@H]4C[C@@]4(C(=O)OCC(Cl)(Cl)Cl)c4ccc(Br)cc4)c3C2=O)C(=O)N1 (stereo partly shown) [Compound 18b] | > 10000 | 83 ± 15 | > 10000 | > 10000 | 96 ± 5.4 | > 10000 | 91 ± 7.1 | > 10000 | 96 ± 5.7%
2 | O=C1CCC(N2Cc3c(cccc3C3=C[C@]3(C(=O)OCC(Cl)(Cl)Cl)c3ccc(Br)cc3)C2=O)C(=O)N1 (stereo partly shown) [Compound 19a] | 170 ± 130 | 64 ± 8.7 | 160 | 19 ± 10 | 23 ± 4.5 | 170 ± 180 | 64 ± 4.3 | 12 | 
3 | O=C1CCC(N2Cc3c(cccc3C3=C[C@@]3(C(=O)OCC(Cl)(Cl)Cl)c3ccc(Br)cc3)C2=O)C(=O)N1 (stereo partly shown) [Compound 19b] | 550 ± 470 | 66 ± 5.5 | 350 | 170 ± 60 | 35 ± 5.9 | 1500 ± 1100 | 60 ± 7.4 | 110 ± 50 | 69 ± 3.3% and 69%
4 | O=C1CCC(N2C(=O)c3cccc(C4=C[C@]4(C(=O)OCC(Cl)(Cl)Cl)c4ccc(Br)cc4)c3C2=O)C(=O)N1 (stereo partly shown) [Compound 20a] | 4300 ± 1900 | 12 ± 13 | 4600 | 560 ± 270 | 34 ± 7.4 | 1500 ± 940 | 56 ± 14 | 900 ± 180 | 40 ± 2.2%
5 | O=C1CCC(N2Cc3cc(C4=C[C@]4(C(=O)OCC(Cl)(Cl)Cl)c4ccc(Br)cc4)ccc3C2=O)C(=O)N1 (stereo partly shown) [Compound 21a] | > 10000 | 81 ± 17 | 590 | > 10000 | 89 ± 4.2 | > 10000 | 89 ± 9.3 | > 10000 | 95 ± 7.6%
6 | O=C1CCC(N2Cc3cc(C4=C[C@@]4(C(=O)OCC(Cl)(Cl)Cl)c4ccc(Br)cc4)ccc3C2=O)C(=O)N1 (stereo partly shown) [Compound 21b] | 3300 ± 3000 | 7.7 ± 4.7 | 800 | 75 ± 50 | 68 ± 2.1 | 250 ± 370 | 57 ± 8.0 | 4800 ± 2600 | 79 ± 6.4%
7 | O=C1CCC(N2C(=O)c3ccc(C4=C[C@]4(C(=O)OCC(Cl)(Cl)Cl)c4ccc(Br)cc4)cc3C2=O)C(=O)N1 (stereo partly shown) [Compound 22a] | 1100 ± 690 |  | 5700 | 3600 ± 740 | 67 ± 7.8 | 1200 ± 1200 | 60 ± 26 | 1300 ± 2100 | 73 ± 6.2%
8 | O=C1CCC(N2Cc3ccc(C4=C[C@]4(C(=O)OCC(Cl)(Cl)Cl)c4ccc(Br)cc4)cc3C2=O)C(=O)N1 (stereo partly shown) [Compound 23a] | > 10000 | 82 ± 7.1 | 980 | > 10000 | 95 ± 6.5 | > 10000 | 93 ± 10 | > 10000 | 94 ± 2.3%
9 | O=C1CCC(N2Cc3ccc(C4=C[C@@]4(C(=O)OCC(Cl)(Cl)Cl)c4ccc(Br)cc4)cc3C2=O)C(=O)N1 (stereo partly shown) [Compound 23b] | > 10000 | 88 ± 10 | 1700 | > 10000 | 91 ± 10 | > 10000 | 95 ± 6.0 | > 10000 | 81 ± 4.6%
10 | O=C1CCC(N2Cc3cccc(C4=C[C@]4(C(=O)OCC(Cl)(Cl)Cl)c4ccc(Br)cc4)c3C2=O)C(=O)N1 (stereo partly shown) [Compound 24a] | > 10000 | 85 ± 24 | 2400 | > 10000 | 95 ± 5.0 | > 10000 | 96 ± 12 | > 10000 | 97 ± 0.58%
11 | O=C1CCC(N2Cc3cccc(C4=C[C@@]4(C(=O)OCC(Cl)(Cl)Cl)c4ccc(Br)cc4)c3C2=O)C(=O)N1 (stereo partly shown) [Compound 24b] | > 10000 | 80 ± 4.3 | 2900 | > 10000 | 97 ± 5.2 | > 10000 | 93 ± 6.8 | > 10000 | 93 ± 2.5%
